ChEMBL document CHEMBL3885881, “DrugMatrix”

Organism: Rattus norvegicus
Test: DrugMatrix - Regimen: Daily Repeat
Assay type: toxicity, organism-based, Sprague-Dawley
Set-up: regimen Daily Repeat, gender Male, age 6-8 weeks
Details: in vivo, sc, route subcutaneous, […]; for ABSOLUTE BASOPHIL / ABSOLUTE EOSINOPHIL / ABSOLUTE LYMPHOCYTE / ABSOLUTE MONOCYTE / ABSOLUTE SEGMENTED NEUTROPHIL / BASOPHIL / EOSINOPHIL / ERYTHROCYTE COUNT / HEMATOCRIT / HEMOGLOBIN / LEUKOCYTE COUNT / LYMPHOCYTE / MEAN CORPUSCULAR HEMOGLOBIN / MEAN CORPUSCULAR HEMOGLOBIN CONCENTRATION / MEAN CORPUSCULAR VOLUME / MONOCYTE / NEUTROPHIL / NUCLEATED RED BLOOD CELLS / PLATELET COUNT: tissue Blood; for ALANINE AMINOTRANSFERASE / ALBUMIN / ALKALINE PHOSPHATASE / ASPARTATE AMINOTRANSFERASE / BLOOD UREA NITROGEN / CARBON DIOXIDE / CHLORIDE / CHOLESTEROL / CREATINE PHOSPHOKINASE / CREATININE / GLUCOSE / LACTATE DEHYDROGENASE / LIPASE / PHOSPHORUS / POTASSIUM / SODIUM / TOTAL BILIRUBIN / TOTAL PROTEIN / URIC ACID: tissue Plasma
[1] = 24 mg/kg, 72 h, dose level High, time 3 day
[2] = 24 mg/kg, 120 h, dose level High, time 5 day
[3] = 72 h, dose 9.6 mg/Kg, dose level Low, time 3 day
[4] = 120 h, dose 9.6 mg/Kg, dose level Low, time 5 day

## CCCCNc1ccc(C(=O)OCCN(C)C)cc1 [TETRACAINE]
[1]
  ABSOLUTE BASOPHIL: 0 CELLS/uL
  ABSOLUTE EOSINOPHIL: 116 CELLS/uL
  ABSOLUTE LYMPHOCYTE: 16844.33 CELLS/uL
  ABSOLUTE MONOCYTE: 146.67 CELLS/uL
  ABSOLUTE SEGMENTED NEUTROPHIL: 1826.33 CELLS/uL
  BASOPHIL: 0%
  EOSINOPHIL: 0.67%
  ERYTHROCYTE COUNT: 5.64 x10E6/uL
  HEMATOCRIT: 36.43%
  HEMOGLOBIN: 14.5 G/DL
  LEUKOCYTE COUNT: 18.93 x10E3/uL
  LYMPHOCYTE: 89%
  MEAN CORPUSCULAR HEMOGLOBIN: 25.67 pg
  MEAN CORPUSCULAR HEMOGLOBIN CONCENTRATION: 39.83 G/DL
  MEAN CORPUSCULAR VOLUME: 64.53 fL
  MONOCYTE: 0.67%
  NEUTROPHIL: 9.67%
  NUCLEATED RED BLOOD CELLS: 0.33 /100WBC
  PLATELET COUNT: 1264.67 x10E3/uL
  ALANINE AMINOTRANSFERASE: 68.67 u/L
  ALBUMIN: 4.23 G/DL
  ALKALINE PHOSPHATASE: 328 u/L
  ASPARTATE AMINOTRANSFERASE: 81 u/L
  BLOOD UREA NITROGEN: 17 mg/dL
  CARBON DIOXIDE: 22.67 mmol/L
  CHLORIDE: 104 MEQ/L
  CHOLESTEROL: 77 mg/dL
  CREATINE PHOSPHOKINASE: 175.67 u/L
  CREATININE: 0.27 mg/dL
  GLUCOSE: 177.33 mg/dL
  LACTATE DEHYDROGENASE: 88.67 u/L
  LIPASE: 9.67 u/L
  PHOSPHORUS: 12.97 mg/dL
  POTASSIUM: 6.72 MEQ/L
  SODIUM: 147.97 MEQ/L
  TOTAL BILIRUBIN: 0.27 mg/dL
  TOTAL PROTEIN: 6.03 G/DL
  URIC ACID: 1.53 mg/dL
[2]
  ABSOLUTE BASOPHIL: 0 CELLS/uL
  ABSOLUTE EOSINOPHIL: 49.33 CELLS/uL
  ABSOLUTE LYMPHOCYTE: 12917.33 CELLS/uL
  ABSOLUTE MONOCYTE: 97.33 CELLS/uL
  ABSOLUTE SEGMENTED NEUTROPHIL: 1669.33 CELLS/uL
  BASOPHIL: 0%
  EOSINOPHIL: 0.33%
  ERYTHROCYTE COUNT: 5.38 x10E6/uL
  HEMATOCRIT: 33.97%
  HEMOGLOBIN: 13.67 G/DL
  LEUKOCYTE COUNT: 14.73 x10E3/uL
  LYMPHOCYTE: 87.67%
  MEAN CORPUSCULAR HEMOGLOBIN: 25.47 pg
  MEAN CORPUSCULAR HEMOGLOBIN CONCENTRATION: 40.3 G/DL
  MEAN CORPUSCULAR VOLUME: 63.2 fL
  MONOCYTE: 0.67%
  NEUTROPHIL: 11.33%
  NUCLEATED RED BLOOD CELLS: 0.33 /100WBC
  PLATELET COUNT: 1410.33 x10E3/uL
  ALANINE AMINOTRANSFERASE: 58.33 u/L
  ALBUMIN: 3.93 G/DL
  ALKALINE PHOSPHATASE: 329 u/L
  ASPARTATE AMINOTRANSFERASE: 92.67 u/L
  BLOOD UREA NITROGEN: 14.67 mg/dL
  CARBON DIOXIDE: 23 mmol/L
  CHLORIDE: 104.67 MEQ/L
  CHOLESTEROL: 71 mg/dL
  CREATINE PHOSPHOKINASE: 172 u/L
  CREATININE: 0.22 mg/dL
  GLUCOSE: 160.67 mg/dL
  LACTATE DEHYDROGENASE: 83.67 u/L
  LIPASE: 9.67 u/L
  PHOSPHORUS: 12.47 mg/dL
  POTASSIUM: 6.53 MEQ/L
  SODIUM: 146.2 MEQ/L
  TOTAL BILIRUBIN: 0.23 mg/dL
  TOTAL PROTEIN: 5.73 G/DL
  URIC ACID: 1.73 mg/dL
[3]
  ABSOLUTE BASOPHIL: 0 CELLS/uL
  ABSOLUTE EOSINOPHIL: 226.67 CELLS/uL
  ABSOLUTE LYMPHOCYTE: 14925.33 CELLS/uL
  ABSOLUTE MONOCYTE: 512.67 CELLS/uL
  ABSOLUTE SEGMENTED NEUTROPHIL: 768.67 CELLS/uL
  BASOPHIL: 0%
  EOSINOPHIL: 1.67%
  ERYTHROCYTE COUNT: 5.36 x10E6/uL
  HEMATOCRIT: 34.5%
  HEMOGLOBIN: 13.5 G/DL
  LEUKOCYTE COUNT: 16.43 x10E3/uL
  LYMPHOCYTE: 90.67%
  MEAN CORPUSCULAR HEMOGLOBIN: 25.17 pg
  MEAN CORPUSCULAR HEMOGLOBIN CONCENTRATION: 39.17 G/DL
  MEAN CORPUSCULAR VOLUME: 64.4 fL
  MONOCYTE: 2.33%
  NEUTROPHIL: 5.33%
  NUCLEATED RED BLOOD CELLS: 0.33 /100WBC
  PLATELET COUNT: 1368.67 x10E3/uL
  ALANINE AMINOTRANSFERASE: 52.33 u/L
  ALBUMIN: 4.1 G/DL
  ALKALINE PHOSPHATASE: 338.33 u/L
  ASPARTATE AMINOTRANSFERASE: 87.67 u/L
  BLOOD UREA NITROGEN: 15 mg/dL
  CARBON DIOXIDE: 22.67 mmol/L
  CHLORIDE: 104.67 MEQ/L
  CHOLESTEROL: 79.67 mg/dL
  CREATINE PHOSPHOKINASE: 530.33 u/L
  CREATININE: 0.16 mg/dL
  GLUCOSE: 187 mg/dL
  LACTATE DEHYDROGENASE: 122.67 u/L
  LIPASE: 9.33 u/L
  PHOSPHORUS: 13.8 mg/dL
  POTASSIUM: 5.89 MEQ/L
  SODIUM: 147.2 MEQ/L
  TOTAL BILIRUBIN: 0.2 mg/dL
  TOTAL PROTEIN: 5.73 G/DL
  URIC ACID: 1.9 mg/dL
[4]
  ABSOLUTE BASOPHIL: 0 CELLS/uL
  ABSOLUTE EOSINOPHIL: 0 CELLS/uL
  ABSOLUTE LYMPHOCYTE: 14217 CELLS/uL
  ABSOLUTE MONOCYTE: 0 CELLS/uL
  ABSOLUTE SEGMENTED NEUTROPHIL: 2349.67 CELLS/uL
  BASOPHIL: 0%
  EOSINOPHIL: 0%
  ERYTHROCYTE COUNT: 5.59 x10E6/uL
  HEMATOCRIT: 35.87%
  HEMOGLOBIN: 14.33 G/DL
  LEUKOCYTE COUNT: 16.57 x10E3/uL
  LYMPHOCYTE: 85.67%
  MEAN CORPUSCULAR HEMOGLOBIN: 25.6 pg
  MEAN CORPUSCULAR HEMOGLOBIN CONCENTRATION: 39.97 G/DL
  MEAN CORPUSCULAR VOLUME: 64.13 fL
  MONOCYTE: 0%
  NEUTROPHIL: 14.33%
  NUCLEATED RED BLOOD CELLS: 0.33 /100WBC
  PLATELET COUNT: 1151 x10E3/uL
  ALANINE AMINOTRANSFERASE: 58 u/L
  ALBUMIN: 4.1 G/DL
  ALKALINE PHOSPHATASE: 278.67 u/L
  ASPARTATE AMINOTRANSFERASE: 76.33 u/L
  BLOOD UREA NITROGEN: 17.67 mg/dL
  CARBON DIOXIDE: 23.33 mmol/L
  CHLORIDE: 103.67 MEQ/L
  CHOLESTEROL: 76.33 mg/dL
  CREATINE PHOSPHOKINASE: 262.33 u/L
  CREATININE: 0.16 mg/dL
  GLUCOSE: 153.67 mg/dL
  LACTATE DEHYDROGENASE: 205 u/L
  LIPASE: 9.67 u/L
  PHOSPHORUS: 12.83 mg/dL
  POTASSIUM: 6.7 MEQ/L
  SODIUM: 147.8 MEQ/L
  TOTAL BILIRUBIN: 0.23 mg/dL
  TOTAL PROTEIN: 5.73 G/DL
  URIC ACID: 1.53 mg/dL
